# The supplement of paper PMC11451515
# Tests used:
# Details in all cases: 48 h
# NOMO1 [1] = assay: cell viability relative to DMSO control; higher = less cytotoxic
# How it was run: (§1)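 Three leukemia lines were tested: NOMO1 and SEM at 500 cells/well and P12-Ichikawa at 1000 cells/well. Each was adapted for at least four passages in each medium and seeded in 5 μl in 1536-well plates, and library compounds in DMSO were pin-dosed from 47 μM to 0.79 nM in 11 threefold steps. After 48 h at 37°C, CellTiter-Glo One luminescence was read. Viability is a percentage relative to DMSO wells on each plate, with cell-free wells as background.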
# P12-Ichikawa [2] = assay: as above
# How it was run: as §1
# SEM cells [3] = assay: as above
# How it was run: as §1
# NOMO1 [4] = assay: AUC of viability dose-response curve (% viability x log10 dose units); higher = less sensitive
# How it was run: (§2)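 Library compounds in DMSO were applied for 48 h at 37°C at 11 threefold doses (47 μM to 0.79 nM) to medium-adapted leukemia cells in 1536-well plates holding 500 or 1000 cells/well. Luminescence from CellTiter-Glo One was normalised plate by plate against DMSO and cell-free wells. Area under the curve came from trapezoidal integration of a log-logistic fit, after scaling curves that rose above full viability and discarding those that failed quality control. The fit had four parameters and used log10 doses.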
# P12-Ichikawa [5] = assay: as above
# How it was run: as §2
# SEM cells [6] = assay: as above
# How it was run: as §2
# [7] = HPLM + 10% dialyzed FBS, 0.000781 µM
# [8] = HPLM + 10% dialyzed FBS, 0.00234 µM
# [9] = HPLM + 10% dialyzed FBS, 0.00702 µM
# [10] = HPLM + 10% dialyzed FBS, 0.0211 µM
# [11] = HPLM + 10% dialyzed FBS, 0.0632 µM
# [12] = HPLM + 10% dialyzed FBS, 0.19 µM
# [13] = HPLM + 10% dialyzed FBS, 0.569 µM
# [14] = HPLM + 10% dialyzed FBS, 1.71 µM
# [15] = HPLM + 10% dialyzed FBS, 5.12 µM
# [16] = HPLM + 10% dialyzed FBS, 15.4 µM
# [17] = HPLM + 10% dialyzed FBS, 46.1 µM
# [18] = RPMI 5 mM glucose + 10% FBS, 0.000781 µM
# [19] = RPMI 5 mM glucose + 10% FBS, 0.00234 µM
# [20] = RPMI 5 mM glucose + 10% FBS, 0.00702 µM
# [21] = RPMI 5 mM glucose + 10% FBS, 0.0211 µM
# [22] = RPMI 5 mM glucose + 10% FBS, 0.0632 µM
# [23] = RPMI 5 mM glucose + 10% FBS, 0.19 µM
# [24] = RPMI 5 mM glucose + 10% FBS, 0.569 µM
# [25] = RPMI 5 mM glucose + 10% FBS, 1.71 µM
# [26] = RPMI 5 mM glucose + 10% FBS, 5.12 µM
# [27] = RPMI 5 mM glucose + 10% FBS, 15.4 µM
# [28] = RPMI 5 mM glucose + 10% FBS, 46.1 µM
# [29] = RPMI 5 mM glucose + 10% dialyzed FBS, 0.000781 µM
# [30] = RPMI 5 mM glucose + 10% dialyzed FBS, 0.00234 µM
# [31] = RPMI 5 mM glucose + 10% dialyzed FBS, 0.00702 µM
# [32] = RPMI 5 mM glucose + 10% dialyzed FBS, 0.0211 µM
# [33] = RPMI 5 mM glucose + 10% dialyzed FBS, 0.0632 µM
# [34] = RPMI 5 mM glucose + 10% dialyzed FBS, 0.19 µM
# [35] = RPMI 5 mM glucose + 10% dialyzed FBS, 0.569 µM
# [36] = RPMI 5 mM glucose + 10% dialyzed FBS, 1.71 µM
# [37] = RPMI 5 mM glucose + 10% dialyzed FBS, 5.12 µM
# [38] = RPMI 5 mM glucose + 10% dialyzed FBS, 15.4 µM
# [39] = RPMI 5 mM glucose + 10% dialyzed FBS, 46.1 µM
# [40] = RPMI 5 mM glucose + 10% dialyzed FBS
structure (smiles),measurement,setting,value
C#Cc1cccc(Nc2ncnc3cc(OC)c(OCCCCCCC(=O)NO)cc23)c1,cell viability,NOMO1 [1]; [7],125%
same,cell viability,NOMO1 [1]; [8],119%
same,cell viability,NOMO1 [1]; [9],136%
same,cell viability,NOMO1 [1]; [10],129%
same,cell viability,NOMO1 [1]; [11],111%
same,cell viability,NOMO1 [1]; [12],98.2%
same,cell viability,NOMO1 [1]; [13],41.5%
same,cell viability,NOMO1 [1]; [14],18.4%
same,cell viability,NOMO1 [1]; [15],7.85%
same,cell viability,NOMO1 [1]; [16],8.02%
same,cell viability,NOMO1 [1]; [17],3.32%
same,cell viability,P12-Ichikawa [2]; [7],126%
same,cell viability,P12-Ichikawa [2]; [8],118%
same,cell viability,P12-Ichikawa [2]; [9],121%
same,cell viability,P12-Ichikawa [2]; [10],124%
same,cell viability,P12-Ichikawa [2]; [11],105%
same,cell viability,P12-Ichikawa [2]; [12],69.2%
same,cell viability,P12-Ichikawa [2]; [13],29.8%
same,cell viability,P12-Ichikawa [2]; [14],8.83%
same,cell viability,P12-Ichikawa [2]; [15],6.65%
same,cell viability,P12-Ichikawa [2]; [16],6.4%
same,cell viability,P12-Ichikawa [2]; [17],2.39%
same,cell viability,SEM cells [3]; [7],118%
same,cell viability,SEM cells [3]; [8],119%
same,cell viability,SEM cells [3]; [9],104%
same,cell viability,SEM cells [3]; [10],110%
same,cell viability,SEM cells [3]; [11],95.9%
same,cell viability,SEM cells [3]; [12],73.4%
same,cell viability,SEM cells [3]; [13],44%
same,cell viability,SEM cells [3]; [14],15.1%
same,cell viability,SEM cells [3]; [15],6.25%
same,cell viability,SEM cells [3]; [16],5.23%
same,cell viability,SEM cells [3]; [17],3.28%
same,cell viability,SEM cells [3]; [18],88.3%
same,cell viability,SEM cells [3]; [19],91.8%
same,cell viability,SEM cells [3]; [20],75.6%
same,cell viability,SEM cells [3]; [21],81.3%
same,cell viability,SEM cells [3]; [22],69.8%
same,cell viability,SEM cells [3]; [23],46.3%
same,cell viability,SEM cells [3]; [24],26.5%
same,cell viability,SEM cells [3]; [25],6.61%
same,cell viability,SEM cells [3]; [26],4.45%
same,cell viability,SEM cells [3]; [27],3.81%
same,cell viability,SEM cells [3]; [28],1.74%
same,cell viability,SEM cells [3]; [29],119%
same,cell viability,SEM cells [3]; [30],123%
same,cell viability,SEM cells [3]; [31],108%
same,cell viability,SEM cells [3]; [32],120%
same,cell viability,SEM cells [3]; [33],117%
same,cell viability,SEM cells [3]; [34],59.2%
same,cell viability,SEM cells [3]; [35],28.8%
same,cell viability,SEM cells [3]; [36],9.73%
same,cell viability,SEM cells [3]; [37],6.06%
same,cell viability,SEM cells [3]; [38],5.12%
same,cell viability,SEM cells [3]; [39],2.79%
same,AUC of viability dose-response curve,NOMO1 [4]; HPLM + 10% dialyzed FBS,276
same,AUC of viability dose-response curve,NOMO1 [4]; RPMI 5 mM glucose + 10% FBS,313
same,AUC of viability dose-response curve,NOMO1 [4]; [40],300
same,AUC of viability dose-response curve,P12-Ichikawa [5]; HPLM + 10% dialyzed FBS,253
same,AUC of viability dose-response curve,P12-Ichikawa [5]; RPMI 5 mM glucose + 10% FBS,254
same,AUC of viability dose-response curve,P12-Ichikawa [5]; [40],244
same,AUC of viability dose-response curve,SEM cells [6]; HPLM + 10% dialyzed FBS,264
same,AUC of viability dose-response curve,SEM cells [6]; RPMI 5 mM glucose + 10% FBS,216
same,AUC of viability dose-response curve,SEM cells [6]; [40],254
COc1cc(-c2nn(C3CCC(N4CCN(C(C)=O)CC4)CC3)c3ncnc(N)c23)ccc1NC(=O)c1cc2ccccc2n1C (stereo unspecified),cell viability,NOMO1 [1]; [18],104%
same,cell viability,NOMO1 [1]; [19],117%
same,cell viability,NOMO1 [1]; [20],101%
same,cell viability,NOMO1 [1]; [21],109%
same,cell viability,NOMO1 [1]; [22],107%
same,cell viability,NOMO1 [1]; [23],111%
same,cell viability,NOMO1 [1]; [24],106%
same,cell viability,NOMO1 [1]; [25],113%
same,cell viability,NOMO1 [1]; [26],112%
same,cell viability,NOMO1 [1]; [27],89.2%
same,cell viability,NOMO1 [1]; [28],26.8%
same,cell viability,NOMO1 [1]; [29],106%
same,cell viability,NOMO1 [1]; [30],110%
same,cell viability,NOMO1 [1]; [31],120%
same,cell viability,NOMO1 [1]; [32],119%
same,cell viability,NOMO1 [1]; [33],129%
same,cell viability,NOMO1 [1]; [34],115%
same,cell viability,NOMO1 [1]; [35],113%
same,cell viability,NOMO1 [1]; [36],112%
same,cell viability,NOMO1 [1]; [37],106%
same,cell viability,NOMO1 [1]; [38],109%
same,cell viability,NOMO1 [1]; [39],31.3%
same,cell viability,P12-Ichikawa [2]; [7],117%
same,cell viability,P12-Ichikawa [2]; [8],114%
same,cell viability,P12-Ichikawa [2]; [9],114%
same,cell viability,P12-Ichikawa [2]; [10],128%
same,cell viability,P12-Ichikawa [2]; [11],115%
same,cell viability,P12-Ichikawa [2]; [12],116%
same,cell viability,P12-Ichikawa [2]; [13],107%
same,cell viability,P12-Ichikawa [2]; [14],111%
same,cell viability,P12-Ichikawa [2]; [15],103%
same,cell viability,P12-Ichikawa [2]; [16],102%
same,cell viability,P12-Ichikawa [2]; [17],83.9%
same,cell viability,P12-Ichikawa [2]; [18],110%
same,cell viability,P12-Ichikawa [2]; [19],114%
same,cell viability,P12-Ichikawa [2]; [20],118%
same,cell viability,P12-Ichikawa [2]; [21],115%
same,cell viability,P12-Ichikawa [2]; [22],113%
same,cell viability,P12-Ichikawa [2]; [23],117%
same,cell viability,P12-Ichikawa [2]; [24],109%
same,cell viability,P12-Ichikawa [2]; [25],102%
same,cell viability,P12-Ichikawa [2]; [26],113%
same,cell viability,P12-Ichikawa [2]; [27],115%
same,cell viability,P12-Ichikawa [2]; [28],100%
same,cell viability,P12-Ichikawa [2]; [29],109%
same,cell viability,P12-Ichikawa [2]; [30],110%
same,cell viability,P12-Ichikawa [2]; [31],119%
same,cell viability,P12-Ichikawa [2]; [32],117%
same,cell viability,P12-Ichikawa [2]; [33],114%
same,cell viability,P12-Ichikawa [2]; [34],106%
same,cell viability,P12-Ichikawa [2]; [35],110%
same,cell viability,P12-Ichikawa [2]; [36],109%
same,cell viability,P12-Ichikawa [2]; [37],110%
same,cell viability,P12-Ichikawa [2]; [38],103%
same,cell viability,P12-Ichikawa [2]; [39],97.7%
same,cell viability,SEM cells [3]; [7],121%
same,cell viability,SEM cells [3]; [8],117%
same,cell viability,SEM cells [3]; [9],123%
same,cell viability,SEM cells [3]; [10],113%
same,cell viability,SEM cells [3]; [11],123%
same,cell viability,SEM cells [3]; [12],126%
same,cell viability,SEM cells [3]; [13],123%
same,cell viability,SEM cells [3]; [14],142%
same,cell viability,SEM cells [3]; [15],121%
same,cell viability,SEM cells [3]; [16],121%
same,cell viability,SEM cells [3]; [17],101%
same,cell viability,SEM cells [3]; [18],125%
same,cell viability,SEM cells [3]; [19],117%
same,cell viability,SEM cells [3]; [20],115%
same,cell viability,SEM cells [3]; [21],109%
same,cell viability,SEM cells [3]; [22],131%
same,cell viability,SEM cells [3]; [23],140%
same,cell viability,SEM cells [3]; [24],132%
same,cell viability,SEM cells [3]; [25],135%
same,cell viability,SEM cells [3]; [26],129%
same,cell viability,SEM cells [3]; [27],122%
same,cell viability,SEM cells [3]; [28],85.5%
same,cell viability,SEM cells [3]; [29],104%
same,cell viability,SEM cells [3]; [30],124%
same,cell viability,SEM cells [3]; [31],121%
same,cell viability,SEM cells [3]; [32],128%
same,cell viability,SEM cells [3]; [33],124%
same,cell viability,SEM cells [3]; [34],111%
same,cell viability,SEM cells [3]; [35],117%
same,cell viability,SEM cells [3]; [36],130%
same,cell viability,SEM cells [3]; [37],120%
same,cell viability,SEM cells [3]; [38],113%
same,cell viability,SEM cells [3]; [39],90%
same,AUC of viability dose-response curve,NOMO1 [4]; HPLM + 10% dialyzed FBS,443
same,AUC of viability dose-response curve,NOMO1 [4]; RPMI 5 mM glucose + 10% FBS,450
same,AUC of viability dose-response curve,NOMO1 [4]; [40],460
same,AUC of viability dose-response curve,P12-Ichikawa [5]; HPLM + 10% dialyzed FBS,449
same,AUC of viability dose-response curve,P12-Ichikawa [5]; RPMI 5 mM glucose + 10% FBS,465
same,AUC of viability dose-response curve,P12-Ichikawa [5]; [40],460
same,AUC of viability dose-response curve,SEM cells [6]; HPLM + 10% dialyzed FBS,472
same,AUC of viability dose-response curve,SEM cells [6]; RPMI 5 mM glucose + 10% FBS,468
same,AUC of viability dose-response curve,SEM cells [6]; [40],468
